{"source": "patent US8530183B2", "about": "“Zinc sensors for cellular imaging” (The Board of Regents of the University of Texas System, priority 2010, dated 2013)", "key": {"[1]": {"tested_on": "pancreatic islets", "test": "Confocal imaging of dye uptake and insulin/Zn2+ release in pancreatic islets", "format": "cell-based, mouse", "description": "FIGS. 8A-C. Imaging insulin/Zn^2+ release in islets by confocal laser scanning microscopy. (FIGS. 8A-B) Confocal images of mouse islets labeled with ZIMIR (FIG. 8A) or calcein/AM (FIG. 8B). (FIG. 8C) Confocal ZIMIR imaging of insulin/Zn^2+ release in a mouse islet bathed in SAB. Images from two example layers 15 μm apart before and 10 sec post KCl (40 mM) stimulation were shown.\nFIG. 11. ZIMIR rapidly labels cells of intact human islets. Representative CLSM images of a ZIMIR labeled human islet at three focal planes 20 μm apart.\nIslets labeling and ZIMIR imaging by confocal laser scanning microscopy. Experiments with rodent animals were carried out according to protocols approved by the Institutional Animal Care and Use Committee of University of Texas Southwestern Medical Center. Rodent islets were isolated from Sprague-Dawley rats or C57BL/6 mice after digesting exocrine tissues of pancreas using collagenase as described below. To image insulin release in islets, the inventors labeled islets with ZIMIR (final concentration 2 μM with 0.025% Pluronic) in SAB buffer for […]. Labeled islets were then transferred to an imaging dish that had been coated with 0.5% PuraMatrix peptide hydrogel (BD Biosciences, Cat # 354250). Islets adhered to the PuraMatrix hydrogel within 5 min. They then imaged ZIMIR fluorescence by confocal laser scanning microscopy using a LSM510 imaging system (Carl Zeiss) and a 40× oil immersion objective (Dakin and Li, 2007).\nConfocal imaging of ZIMIR uptake and insulin/Zn^2+ release in pancreatic islets. In addition to cultured cells, ZIMIR also rapidly and noninvasively labels cells in preparations such as dissected pancreatic islets. After loading islets with ZIMIR (2 μM) for 25 min, the inventors applied CLSM to track the distribution of ZIMIR in three dimensions (3D). […] The result confirmed that ZIMIR readily diffused through the interstitial space to reach interior cells, whereas calcein/AM was trapped by cells in the outer layer, unable to penetrate any deeper. After labeling, the inventors depolarized cells with high concentration of KCl."}, "[2]": {"tested_on": "cultured mammalian cells", "test": "Growth rate of ZIMIR-labeled cells versus unlabeled cells (cytotoxicity)", "format": "cell-based", "conditions": "over the next several days after labeling"}, "[3]": {"tested_on": "INS-1 cells", "test": "Response of membrane-anchored ZIMIR to extracellular Zn2+ and decay upon Zn2+ washout", "format": "cell-based, rat", "description": "FIGS. 5A-B. Membrane anchored ZIMIR reports changes of [Zn^2+]e. (FIG. 5A) Example fluorescence images (Excitation 488±7.5 nm, emission 530±20 nm) of INS-1 cells labeled with ZIMIR at different [Zn^2+]e. (FIG. 5B) Quantification of the average ZIMIR fluorescence intensity along the plasma membrane (IZIMIR(PM)).\n(FIG. 7A) Time courses of IZIMIR(PM) decay after washing INS-1 cells (initially bathed in FIBS containing 1 μM Zn^2+) with HBS containing EDTA (10 μM) and DPAS (0-8 μM). (FIG. 7B) ZIMIR imaging of insulin/Zn^2+ release of MIN6 cells bathed in SAB containing EDTA (10 μM) and DPAS (4 μM). Time courses of IZIMIR(PM) fluctuation of four separate regions of interest (ROI 1-4) and example ZIMIR images at different time points were shown (a-e; arrow heads highlighting local ZIMIR increases in separate ROIs at different time).\nTo characterize the response of membrane anchored ZIMIR to changes of extracellular Zn^2+ concentration ([Zn^2+]), the inventors varied [Zn^2+]e from low nanomolar to micromolar, using Zn^2-1 buffers containing nitrilotriacetic acid (for [Zn^2+]e<100 nM) (Hirano et al., 2000) or histidine (for [Zn^2+]e. 100 nM) (Hauser and Tsien, 2007). After recording fluorescence images at different [Zn^2+]e levels, the inventors washed cells with a nominally Zn^2+ free SAB containing 0.2 mM DPAS and followed the decay of IZIMIR(PM).\nUpon membrane depolarization, ZIMIR signal increased immediately and reached a plateau before it gradually declined (FIGS. 6E-F). Unexpectedly, however, in some occasions, ZIMIR signal remained elevated even after the inventors lowered KCl concentration to the resting level (5 mM) (FIG. 9). […] In INS-1 beta cells labeled with ZIMIR, after recording ZIMIR fluorescence in solutions containing ˜1 μM of Zn2+, the inventors perifused cells with a nominally Zn^2+-free solution containing only EDTA (10 μM), or with both EDTA (10 μM) and different concentrations of DPAS."}}, "note": "“Also recorded” adds a separate entry of the source."}
{"smiles": "CCCCCCCCCCCCN(CC(=O)O)Cc1c2oc3c(CN(CCCCCCCCCCCC)CC(=O)O)c(O)ccc3c(-c3cc(NCCN(CCc4ccccn4)Cc4ccccn4)ccc3C(=O)O)c-2ccc1=O", "note": "[ZIMIR]", "values": [{"measurement": "distribution of dye in islets (3D, CLSM)", "setting": "[1]; ZIMIR 2 μM for 25 min, mouse and human islets", "result": "taken up by cells throughout the islets, from the mantle to the core"}, {"measurement": "ZIMIR fluorescence change in islets upon KCl depolarization", "setting": "[1]; mouse islet, high concentration of KCl (40 mM)", "result": "robust and synchronized enhancement of ZIMIR fluorescence"}, {"measurement": "growth rate of labeled cells / cytotoxicity", "setting": "[2]", "result": "same growth rate as unlabeled cells; also recorded: very little cytotoxicity"}, {"measurement": "decaying half lifetime of membrane ZIMIR signal upon Zn^2+ washout", "setting": "[3]; INS-1 cells, EDTA 10 μM only, absence of DPAS", "result": 2.723, "unit": "min"}, {"measurement": "ZIMIR fluorescence along the plasma membrane (IZIMIR(PM)) versus [Zn^2+]e", "setting": "[3]; [Zn^2+]e varied from nanomolar to micromolar", "result": "stepwise increase with incremental level of [Zn^2+]e"}]}
